From US7951364B2, “CaR receptor as a mediator of migratory cell chemotaxis and/or chemokinesis” (The General Hospital Corporation, priority 2000, dated 2011)

Columns and labels:
[1] = tested on: mononuclear cells derived from neonatal CaR −/−, +/− or +/+ mice; experiment: Transmigration assay with cells from CaR knockout and wild-type mice; assay type: cell-based, mouse; details: CaR −/− cells
Description: (§1) Transmigration assays. Transwells (5 μm pore size polycarbonate membrane, 12 mm diameter) (Costar, Corning, N.Y.) were used to assess cell migration using an established methodology (25). The concentration of Ca^++ in IMDM (CellGro, Herndon, Va.) in the upper and lower chambers of the transwell were adjusted according to a checkerboard analysis of chemotaxis. Calcium concentrations varied from 0 mM to 6.5 mM. Purified monocytes (1×10^4) were then placed in the top chamber with 150 μl of IMDM (CellGro, Hemdon, Va.). 500 μl of the medium was added to the bottom of the well and supplemented with varying concentrations of Ca^++ or with Ca^++ plus 10 ng/ml of MCP-1, 100 ng/ml of SDF-1α or 10 ng/ml of MIP-1α (PeproTech, Rocky Hills, N.Y.). Cells were incubated at 37° C. for 3 hours. To study inhibition of chemotaxis, cells were subsequently incubated with wortmannin (1 μM for 20 minutes at 37° C.), herbimycin (1 μM for 20 minutes at 37° C.) or genistein (1 μg/ml for 20 minutes at 37° C.), before their use in transmigration assays. At the end of the experiment, cells were then harvested from the lower chamber and counted using a hemocytometer.
CaR−/− were bred as previously described (Ho, C., et al., Nat Genet 1995, 11:389-94). To produce CaR−/− mice for this study, heterozygote mice were intercrossed. The mice studied were either 129S6/svev or 129S6/svev/Swiss Webster mixed genetic background. […]

[2] = target: calcium-sensing receptor (CaR) (Homo sapiens, UniProt P41180); details: cited from earlier work
CXCR-4 = details: elevated Ca^++
Description: (§2) Chemokine receptor expression and flow cytometric analysis. Purified monocytes were incubated in a Ca^++-free medium supplemented with 1 mM, 3 mM or 5 mM CaCl2 or with 1.5 mM CaCl2 plus 1 μM NPS R-467 or S-467. Cells were washed once in PBS with 1% FCS and resuspended in 100 μl of Ca^++-free PBS. Monoclonal antibody against the CaR was added to the cells and incubated alone or with the CaR peptide for 30 min at room temperature. Cells were washed with PBS containing 1% FCS, resuspended in PBS with 1% FCS and incubated for 15 min at room temperature with anti-mouse IgG conjugated to FITC. The cells were washed again and conjugated monoclonal antibody [anti-CXCR4, anti-CCR5 (Pharmingen, San Diego, Calif.); anti-CCR2 (R&D, Minneapolis, Minn.); anti-CD14 (Becton Dickinson, San Jose, Calif.); or anti-CD4 (Becton Dickinson, San Jose, Calif.)] was added and incubated for 15 min at room temperature. Stained cells were fixed with 1% paraformaldehyde and assayed within 24 hrs. Flow cytometric analysis was performed using a dual laser FACSCalibur (Becton Dickinson Immunocytometry Systems, San Jose, Calif.) calibrated using 2 μm Calibrite beads (Becton Dickinson). Data acquisition and analysis were performed using CellQuest software (Becton Dickinson).

CCR-5 = details: elevated Ca^++
Description: as §2

CD4 = details: varying Ca^++ concentration
Description: as §2

CD14^+ monocytes = experiment: Transmigration assay (monocyte chemotaxis, transwell); assay type: cell-based, human
Description: Preparation of peripheral blood CD14^+ monocytes. Low density cells were isolated from human and mouse peripheral blood using Ficoll-Hypaque (Pharmacia, Piscataway, N.J.). CD14^+ monocytes were purified by sorting on FACSVantage (Becton Dickinson, San Jose, Calif.) based on CD14 expression. Purified cells were incubated in either calcium-free medium (Hanks' Balanced Salt Solution 1×, CellGro, Hermdon. VA) or Iscove's Medium 1×(Mod) (CellGro, Herndon, Va.) which contains 1.5 mM Ca++. […] Cells were incubated for up to 24 hours in 5% CO2 humidified air. Monocytes were then detached from the plate using a cell scraper. All calcium concentrations indicated in the presentation of the data represent the total Ca^++ present in the basal medium plus any added Ca^++.
as §1

[3] = tested on: monocytes (Mac-1 positive mononuclear cells); experiment: Biologic activity in vivo: subcutaneous injection, monocyte infiltration at injection site; set-up: species or system C57BL/6 mice; details: tissue excised 18 hours later, CaCl2 5.0 mM, NPS R-467 10 μM
Description: Biologic activity of ionic calcium in vivo. C57BL/6 mice (Jackson Laboratories) were injected subcutaneously at a marked, shaved spot on the abdomen with 20 μl of 5 mM CaCl2 or 20 μl of MCP-1 at a concentration of 10 ng/ml, with a combination of MCP-1 and 5 mM CaCl2 or with 10 μM NPS R-467 in PBS. Control mice were injected subcutaneously with 20 μl PBS alone. All subcutaneously injected agents contained less than 0.004 ng/ml of LPS by the limulus assay (Sigma) as previously described (Bleul, C. C., et al., J Exp Med, 1996, 184:1101-1109). Mice were sacrificed by CO2 asphyxiation 18 hours after injection, and injection sites were excised, snap-frozen and 4 μm cryosections were obtained and stained with hematoxylin and eosin. Immunocytochemistry was performed on the frozen sections using alkaline phosphatase-conjugated Mac-1 antibody (Pharmingen) as previously described and assessed by light microscopy (Bleul, C. C., et al., supra).

human CD34^+ cells = experiment: In vitro assays of human CD34^+ hematopoietic progenitor cells; assay type: cell-based; details: increased Ca^2+ concentration
Source text: Calcium ions effect Hematopoietic Progenitor Cells. We also assessed the effects of calcium, through its interaction with the calcium sensing receptor (CaR) using in vitro assays of human CD34^+ cells. […] Therefore, calcium participates in maintaining candidate stem cells in a primitive, undifferentiated state. […] This was accompanied by a decrease in the level of LTC-ICs in the bone marrow, but an increase in the level of CFU-Cs, with a converse increase in hematopoietic stem cells in is the peripheral blood.

Sequence of calcium-sensing receptor (CaR) (P41180 20-1078): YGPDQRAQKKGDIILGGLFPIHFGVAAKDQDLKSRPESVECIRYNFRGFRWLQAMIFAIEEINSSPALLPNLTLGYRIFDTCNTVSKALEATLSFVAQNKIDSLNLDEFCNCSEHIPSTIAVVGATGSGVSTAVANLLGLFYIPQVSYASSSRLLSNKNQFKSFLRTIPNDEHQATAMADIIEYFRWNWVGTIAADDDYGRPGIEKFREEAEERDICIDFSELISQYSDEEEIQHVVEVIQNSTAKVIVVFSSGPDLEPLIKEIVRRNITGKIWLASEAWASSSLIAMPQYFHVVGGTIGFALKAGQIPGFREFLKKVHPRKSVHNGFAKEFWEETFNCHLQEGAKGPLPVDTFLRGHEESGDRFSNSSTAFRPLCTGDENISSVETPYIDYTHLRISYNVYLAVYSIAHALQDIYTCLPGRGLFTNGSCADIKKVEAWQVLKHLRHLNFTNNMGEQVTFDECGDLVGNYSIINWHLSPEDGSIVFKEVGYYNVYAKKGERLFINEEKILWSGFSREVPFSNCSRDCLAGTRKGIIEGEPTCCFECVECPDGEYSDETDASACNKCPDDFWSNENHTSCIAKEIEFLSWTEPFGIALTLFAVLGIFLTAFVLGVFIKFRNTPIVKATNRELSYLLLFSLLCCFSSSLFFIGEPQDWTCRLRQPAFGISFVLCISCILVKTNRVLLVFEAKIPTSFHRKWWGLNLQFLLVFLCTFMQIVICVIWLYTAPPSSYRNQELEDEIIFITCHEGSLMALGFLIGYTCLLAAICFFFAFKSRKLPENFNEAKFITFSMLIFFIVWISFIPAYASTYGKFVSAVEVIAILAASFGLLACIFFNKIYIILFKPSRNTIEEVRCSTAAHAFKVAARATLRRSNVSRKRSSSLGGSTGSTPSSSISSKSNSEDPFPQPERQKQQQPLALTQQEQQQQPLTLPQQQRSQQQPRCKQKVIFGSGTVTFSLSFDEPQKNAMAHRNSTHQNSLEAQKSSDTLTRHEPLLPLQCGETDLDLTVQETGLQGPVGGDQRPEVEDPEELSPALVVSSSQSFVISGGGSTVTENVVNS

## [Ca+2].[Cl-].[Cl-] [Ca^++, calcium chloride]
[1]
  Transmigration to the Ca^++ gradient: failed to transmigrate
[2]
  Ca^++ concentration at which activation of the receptor is maximal: 5 mM
CXCR-4
  CXCR-4 expression: increased but did not achieve statistical significance
CCR-5
  CCR-5 median fluorescence intensity: failed to demonstrate any change
CD4
  Fluorescence intensity of anti-CD4 antibody staining: did not vary
CD14^+ monocytes
  Ca^++ concentration giving maximal chemotaxis: 4.5 mM
  Ca^++ concentration giving peak migration in response to MCP-1: 4.5 mM
[3]
  Accumulation of mononuclear cells staining positive for Mac-1 at injection site: Accumulation
Human CD34^+ cells; p=0.017
  Number of more mature BFU-Es: decrease
Human CD34^+ cells; p=0.037
  Level of primitive cells measured by LTC-ICs: increase
